Values quoted from earlier work as cited in patent US20210393522A1, “COMPOSITIONS FOR SOLUBILIZING WATER-INSOLUBLE ACTIVE INGREDIENTS” (priority 2020, published 2021).

Assays:
[1] = oil-based delivery systems; humans; Agurell 1981

Solubility in water [nanograms per ml]	Structure (SMILES)	Share of total CBD absorbed [1] [%]
	C=C(C)[C@@H]1CCC(C)=C[C@H]1c1c(O)cc(CCCCC)cc1O [CBD, cannabidiol]	4
5	CC(C)(Sc1cc(C(C)(C)C)c(O)c(C(C)(C)C)c1)Sc1cc(C(C)(C)C)c(O)c(C(C)(C)C)c1 [Probucol, 4,4′-[Propane-2,2-diylbis(thio)]bis(2,6-di-tert-butylphenol)]	
